Literature values as cited in patent US20070197568A1 (priority 2005, published 2007).

Details: animals, at doses that inhibit tumor growth

In the case of O=C(CCCCCCC(=O)Nc1ccccc1)NO [SAHA, N-Hydroxy-N′-phenyl octanediamide], the “toxicity to the animal” value is listed as “no toxicity”.
